Experiments:
MAO-A = MAO-A (Homo sapiens, UniProt P21397); experiment: Inhibition of human recombinant MAO-A expressed in insect cells assessed as inhibition of 4-hydroxyquinoline formation at 10 uM using kynuramine as substrate incubated for 75 mins by spectrophotometric analysis relative to control; set-up: species or system Insect cell; conditions: probe kynuramine
[1] = Metabolic stability in human hepatocytes assessed as intrinsic clearance measured per million cells incubated upto 60 mins by LC-MS/MS analysis; assay type: ADME, cell-based, Hepatocyte; conditions: read-out: CLH
[2] = target: T1, 5-hydroxytryptamine receptor 6 (Homo sapiens, UniProt P50406); experiment: Displacement of [3H] LSD from human recombinant 5-HT6 receptor expressed in human HeLa cells incubated for 120 mins by spectrophotometric analysis; assay type: cell-based
T1 sequence (P50406 whole entry): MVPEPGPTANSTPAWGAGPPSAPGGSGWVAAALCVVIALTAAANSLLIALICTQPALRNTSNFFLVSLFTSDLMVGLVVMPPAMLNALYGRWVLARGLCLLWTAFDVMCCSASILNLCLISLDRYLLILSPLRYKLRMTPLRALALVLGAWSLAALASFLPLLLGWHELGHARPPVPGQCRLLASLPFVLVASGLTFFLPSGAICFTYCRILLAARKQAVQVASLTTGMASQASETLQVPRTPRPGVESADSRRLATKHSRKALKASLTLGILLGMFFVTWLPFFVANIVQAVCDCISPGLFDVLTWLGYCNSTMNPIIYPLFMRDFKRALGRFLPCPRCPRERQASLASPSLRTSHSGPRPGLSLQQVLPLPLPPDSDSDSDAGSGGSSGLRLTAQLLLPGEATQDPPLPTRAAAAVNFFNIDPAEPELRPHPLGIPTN

[3] = target: T2, 5-hydroxytryptamine receptor 7 (Homo sapiens, UniProt P34969); experiment: Displacement of [3H] LSD from human recombinant 5-HT7 receptor expressed in CHO-K1 cells incubated for 120 mins by spectrophotometric analysis; assay type: cell-based
T2 sequence (P34969 whole entry): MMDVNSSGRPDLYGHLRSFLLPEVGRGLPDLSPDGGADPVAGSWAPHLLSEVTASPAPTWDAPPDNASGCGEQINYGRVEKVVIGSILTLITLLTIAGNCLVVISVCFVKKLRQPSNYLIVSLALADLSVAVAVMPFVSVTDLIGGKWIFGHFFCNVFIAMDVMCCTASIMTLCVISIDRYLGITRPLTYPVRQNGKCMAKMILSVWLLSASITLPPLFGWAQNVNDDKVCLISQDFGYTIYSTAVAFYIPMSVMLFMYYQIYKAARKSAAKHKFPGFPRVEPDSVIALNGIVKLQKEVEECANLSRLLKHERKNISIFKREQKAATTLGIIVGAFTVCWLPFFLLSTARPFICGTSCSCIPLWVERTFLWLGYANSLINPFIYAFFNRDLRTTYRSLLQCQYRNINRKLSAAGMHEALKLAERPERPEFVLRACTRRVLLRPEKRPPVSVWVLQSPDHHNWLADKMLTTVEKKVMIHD

[4] = target: T3, Alpha-1A adrenergic receptor (Homo sapiens, UniProt P35348); experiment: Displacement of [3H] prazosin from human recombinant adrenergic alpha-1a receptor expressed in […] cells incubated for 60 mins by spectrophotometric analysis; assay type: cell-based
T3 sequence (P35348 whole entry): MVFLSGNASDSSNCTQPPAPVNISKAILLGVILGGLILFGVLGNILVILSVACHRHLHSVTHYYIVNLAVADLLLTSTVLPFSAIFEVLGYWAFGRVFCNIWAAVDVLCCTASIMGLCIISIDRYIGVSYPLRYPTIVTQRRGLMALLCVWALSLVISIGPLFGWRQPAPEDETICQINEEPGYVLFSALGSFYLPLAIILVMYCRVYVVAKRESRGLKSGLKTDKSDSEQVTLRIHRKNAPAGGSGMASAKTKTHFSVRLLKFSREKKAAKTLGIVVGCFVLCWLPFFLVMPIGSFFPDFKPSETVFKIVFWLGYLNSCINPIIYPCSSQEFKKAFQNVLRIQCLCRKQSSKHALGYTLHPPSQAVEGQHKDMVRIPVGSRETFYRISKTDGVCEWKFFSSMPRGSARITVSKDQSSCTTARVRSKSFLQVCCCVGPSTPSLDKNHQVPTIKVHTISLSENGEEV

[5] = target: T4, Alpha-1B adrenergic receptor (Homo sapiens, UniProt P35368); experiment: Displacement of [3H] prazosin from human recombinant adrenergic alpha-1b receptor expressed in […] cells incubated for 60 mins by spectrophotometric analysis; assay type: cell-based
T4 sequence (P35368 whole entry): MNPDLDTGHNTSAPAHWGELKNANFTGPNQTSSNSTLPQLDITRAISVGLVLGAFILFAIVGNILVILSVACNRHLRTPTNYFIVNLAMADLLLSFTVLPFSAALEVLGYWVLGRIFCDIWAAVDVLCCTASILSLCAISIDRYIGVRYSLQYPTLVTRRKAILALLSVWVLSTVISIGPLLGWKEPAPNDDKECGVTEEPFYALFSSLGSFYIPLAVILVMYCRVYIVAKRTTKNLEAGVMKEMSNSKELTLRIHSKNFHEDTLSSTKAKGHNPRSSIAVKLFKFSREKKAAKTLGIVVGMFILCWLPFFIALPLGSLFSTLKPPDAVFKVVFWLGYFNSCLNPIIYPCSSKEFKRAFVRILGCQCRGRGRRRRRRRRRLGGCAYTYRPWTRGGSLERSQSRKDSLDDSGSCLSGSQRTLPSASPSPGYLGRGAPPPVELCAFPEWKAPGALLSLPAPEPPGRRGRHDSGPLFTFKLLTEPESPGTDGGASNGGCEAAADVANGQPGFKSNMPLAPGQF

[6] = target: T5, Alpha-1D adrenergic receptor (Homo sapiens, UniProt P25100); experiment: Displacement of [3H] prazosin from human recombinant adrenergic alpha-1d receptor expressed in HEK293 cells incubated for 60 mins by spectrophotometric analysis; assay type: cell-based
T5 sequence (P25100 whole entry): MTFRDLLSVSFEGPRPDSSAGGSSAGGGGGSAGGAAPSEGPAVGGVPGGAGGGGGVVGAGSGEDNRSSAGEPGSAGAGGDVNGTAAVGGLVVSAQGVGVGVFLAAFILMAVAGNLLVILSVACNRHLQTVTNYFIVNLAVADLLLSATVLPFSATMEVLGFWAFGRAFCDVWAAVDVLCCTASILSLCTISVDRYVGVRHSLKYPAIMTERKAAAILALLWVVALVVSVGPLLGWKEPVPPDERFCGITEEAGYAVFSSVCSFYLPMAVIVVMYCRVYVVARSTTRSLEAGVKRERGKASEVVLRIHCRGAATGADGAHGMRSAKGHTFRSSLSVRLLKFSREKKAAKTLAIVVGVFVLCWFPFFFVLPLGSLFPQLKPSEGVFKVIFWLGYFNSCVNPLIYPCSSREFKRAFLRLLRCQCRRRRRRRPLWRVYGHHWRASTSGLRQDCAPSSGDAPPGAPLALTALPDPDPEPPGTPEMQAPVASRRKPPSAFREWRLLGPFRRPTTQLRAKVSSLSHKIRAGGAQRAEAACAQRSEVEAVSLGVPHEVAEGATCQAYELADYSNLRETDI

[7] = target: T6, Alpha-2A adrenergic receptor (Homo sapiens, UniProt P08913); experiment: Displacement of [3H]-rauwolscine from human recombinant adrenergic alpha-2A receptor expressed in CHO-K1 cells incubated for 60 mins by spectrophotometric analysis; assay type: cell-based
T6 sequence (P08913 whole entry): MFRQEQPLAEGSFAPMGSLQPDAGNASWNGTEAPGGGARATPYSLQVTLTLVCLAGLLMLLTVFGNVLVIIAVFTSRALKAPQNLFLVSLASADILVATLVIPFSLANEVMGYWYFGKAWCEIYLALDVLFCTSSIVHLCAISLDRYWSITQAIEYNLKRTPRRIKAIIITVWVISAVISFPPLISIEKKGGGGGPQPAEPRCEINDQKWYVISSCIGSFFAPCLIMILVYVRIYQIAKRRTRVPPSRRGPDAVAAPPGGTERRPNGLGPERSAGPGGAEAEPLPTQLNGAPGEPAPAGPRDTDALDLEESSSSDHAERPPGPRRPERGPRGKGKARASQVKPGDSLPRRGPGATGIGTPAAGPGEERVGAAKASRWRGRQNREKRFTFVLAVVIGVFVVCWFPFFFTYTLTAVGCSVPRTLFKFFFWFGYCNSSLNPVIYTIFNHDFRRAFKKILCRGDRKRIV

[8] = Displacement of [3H] idazoxan from imidazoline receptor 2 (unknown origin) by spectrophotometric analysis; set-up: species or system Homo sapiens
[9] = target: Neuronal acetylcholine receptor; alpha3/beta4 (Homo sapiens, UniProt P30926+P32297); experiment: Displacement of [125I]-epibatidine from human recombinant nAChR alpha3beta4 receptor expressed in CHO-K1 cells incubated for 60 mins by spectrophotometric analysis; assay type: cell-based
Neuronal acetylcholine receptor; alpha3/beta4, sequence (P30926 whole entry): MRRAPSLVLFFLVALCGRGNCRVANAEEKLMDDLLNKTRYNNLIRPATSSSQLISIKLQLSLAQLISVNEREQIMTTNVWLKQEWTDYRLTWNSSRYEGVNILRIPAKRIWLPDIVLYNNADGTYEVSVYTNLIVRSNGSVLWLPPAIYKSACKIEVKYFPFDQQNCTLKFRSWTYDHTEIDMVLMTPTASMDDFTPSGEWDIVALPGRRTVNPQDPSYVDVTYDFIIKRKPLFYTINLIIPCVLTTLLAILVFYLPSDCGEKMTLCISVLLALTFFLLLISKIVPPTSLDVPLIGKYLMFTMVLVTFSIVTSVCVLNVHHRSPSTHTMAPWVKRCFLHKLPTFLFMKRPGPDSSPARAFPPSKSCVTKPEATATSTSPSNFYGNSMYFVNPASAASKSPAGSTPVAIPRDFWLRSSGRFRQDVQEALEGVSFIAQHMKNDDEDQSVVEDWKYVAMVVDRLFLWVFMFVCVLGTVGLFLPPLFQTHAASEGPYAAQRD
Neuronal acetylcholine receptor; alpha3/beta4, sequence (P32297 whole entry): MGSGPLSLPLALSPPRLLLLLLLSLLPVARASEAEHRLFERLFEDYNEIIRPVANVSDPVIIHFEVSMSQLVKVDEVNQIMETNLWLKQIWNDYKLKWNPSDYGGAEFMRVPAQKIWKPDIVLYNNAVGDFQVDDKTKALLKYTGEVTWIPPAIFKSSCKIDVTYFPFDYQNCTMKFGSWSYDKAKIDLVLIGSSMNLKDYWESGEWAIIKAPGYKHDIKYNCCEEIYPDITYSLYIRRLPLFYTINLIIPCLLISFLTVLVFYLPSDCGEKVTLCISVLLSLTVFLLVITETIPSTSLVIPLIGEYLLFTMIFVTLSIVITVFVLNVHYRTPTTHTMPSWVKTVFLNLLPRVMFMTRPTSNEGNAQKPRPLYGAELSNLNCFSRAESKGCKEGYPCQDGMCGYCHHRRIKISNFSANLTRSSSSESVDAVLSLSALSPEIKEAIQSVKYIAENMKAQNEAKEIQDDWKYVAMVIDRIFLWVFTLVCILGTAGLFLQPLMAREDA

[10] = target: T1, 5-hydroxytryptamine receptor 6; experiment: Displacement of [3H] LSD from human recombinant 5-HT6 receptor expressed in human HeLa cells assessed as inhibition constant incubated for 120 mins by spectrophotometric analysis; assay type: cell-based
[11] = target: T2, 5-hydroxytryptamine receptor 7; experiment: Displacement of [3H] LSD from human recombinant 5-HT7 receptor expressed in CHO-K1 cells assessed as inhibition constant incubated for 120 mins by spectrophotometric analysis; assay type: cell-based
[12] = target: T6, Alpha-2A adrenergic receptor; experiment: Displacement of [3H]-rauwolscine from human recombinant adrenergic alpha-2A receptor expressed in CHO-K1 cells assessed as inhibition constant incubated for 60 mins by spectrophotometric analysis; assay type: cell-based

MAO-A, sequence (P21397 whole entry): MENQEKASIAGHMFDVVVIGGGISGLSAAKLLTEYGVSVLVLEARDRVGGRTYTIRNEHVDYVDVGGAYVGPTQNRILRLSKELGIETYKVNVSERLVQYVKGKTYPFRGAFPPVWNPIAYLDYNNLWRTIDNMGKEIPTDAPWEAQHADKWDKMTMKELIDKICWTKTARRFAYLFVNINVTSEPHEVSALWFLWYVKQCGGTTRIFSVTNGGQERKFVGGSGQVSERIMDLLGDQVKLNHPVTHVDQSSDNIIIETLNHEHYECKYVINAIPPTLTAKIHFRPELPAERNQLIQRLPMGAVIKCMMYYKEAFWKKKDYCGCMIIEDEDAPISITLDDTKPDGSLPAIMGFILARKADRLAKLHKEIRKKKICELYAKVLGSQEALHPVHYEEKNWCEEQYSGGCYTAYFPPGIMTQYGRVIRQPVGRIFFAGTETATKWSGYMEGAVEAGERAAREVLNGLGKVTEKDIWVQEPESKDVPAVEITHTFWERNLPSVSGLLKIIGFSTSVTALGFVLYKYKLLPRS

For `O=C(O)/C=C/C(=O)O.[2H]C([2H])(Cc1c[nH]c2ccccc12)N(C)C`, the inhibition at 1.25 h, 10 µM (MAO-A) was 84.3%, the hepatocyte CLint [1] was 7.3 µL/min/1e6 cells and the IC50 [2] was 1080 nM. It also gave an IC50 [3] of 90 nM, an IC50 [4] of 990 nM and an IC50 [5] of 930 nM. For the same compound, the IC50 [6] was 3260 nM, the IC50 [7] was 3030 nM and the IC50 [8] was 2600 nM. The IC50 [9] was 4400 nM, the Ki [10] was 500 nM and the Ki [11] was 50 nM. The Ki [12] was 1520 nM.
Work on `CN(C)CCc1c[nH]c2ccccc12.O=C(O)/C=C/C(=O)O` yielded an inhibition at 1.25 h, 10 µM (MAO-A) of 85.3%, a hepatocyte CLint [1] of 16.6 µL/min/1e6 cells and an IC50 [2] of 1210 nM. The IC50 [3] was 120 nM, the IC50 [4] was 580 nM and the IC50 [5] was 670 nM. It also gave an IC50 [6] of 3070 nM, an IC50 [7] of 2220 nM and an IC50 [8] of 1930 nM. For the same compound, the IC50 [9] was 4200 nM, the Ki [10] was 560 nM and the Ki [11] was 70 nM. It also gave a Ki [12] of 1110 nM.
